Laboratory results from paper PMC4862498, “PI4 Kinase Is a Prophylactic but Not Radical Curative Target in Plasmodium vivax-Type Malaria Parasites” (Antimicrobial Agents and Chemotherapy, 2016).

Tests used:
[1] = test system: P. cynomolgi hypnozoites in primary rhesus hepatocytes; experiment: In vitro liver-stage drug assay with P. cynomolgi, small forms (hypnozoites); assay type: cell-based, Plasmodium cynomolgi; conditions: compound exposure 6 days, mean of several (9) independent assays, read-out: IC50 against hypnozoites (small forms)
Method: In vitro infections of primary rhesus hepatocytes with P. cynomolgi sporozoites were performed according to methods described previously by Zeeman et al. ([10]). At day 6 postinfection (p.i.), the assay mixtures were fixed and stained with anti-P. cynomolgi Hsp70 rabbit antiserum and a fluorescein isothiocyanate (FITC)-labeled secondary antibody (goat anti-rabbit). Plates were analyzed with the Operetta high-content imaging system, differentially counting hypnozoites and developing extraerythrocytic forms (EEFs), based on parasite size ([10]).
In vitro activity against P. cynomolgi liver stages was determined for both compounds. The numbers of small (hypnozoites) and large (developing EEFs) parasites were determined by using Operetta and image analysis of primary rhesus hepatocyte cultures infected with P. cynomolgi sporozoites and exposed to the compound for 6 days ([10]). […] IC50s were determined by using the least-squares nonlinear regression method (Prism) for small and large parasites. Data from several independent experiments were used to calculate the IC50s for the two compounds.

[2] = design: species or system CD-1 mice; conditions: mouse, in vivo
Method: Details of in vivo PK studies of KDU691 and LMV599 in CD-1 mice and monkeys can be found in the supplemental material.
Clinical chemistry and hematology
For the clinical analysis serum from 1 mL of clotted blood was analysed using the Cobas Integra 400 plus fully automated chemistry analyser. The following clinical parameters were determined: Alkaline phosphatase; Alanine Aminotransferase; Albumin: Aspartate aminotransfeasr; Bilirubin; Calcium; Cholesterol; Creatine kinase; Creatinine; C-reactive protein: Iron; Phosphate; Gamma-glutamyl transpeptidase; Glucose; Hemoglobin; Potassium; Lactate dehydrogenase; Sodium; Total protein; Urea Haematological parameters were determined from 1 mL EDTA-blood with a Sysmex XT-2000iV automated system. The following hematological parameters were determined: Basophilic granulocytes; Eosinophilic granulocytes; Erythrocytes; Hematocrit; Leucocytes; Leucocyte differentiation; Lymphocytes; Mean corpusculair hemoglobin; Mean corpusculair hemoglobin concentration; Mean corpusculair volume; Neutrophilic granulocytes; Red cell distribution width; Thrombocytes […]
For LC/MS/MS analysis, 50 µL of plasma samples were precipitated using 180 µL of acetonitrile:methanol:acetic acid (90:9.8:0.2) containing either related compound or warfarin as internal standard. After vortexing and centrifuging the mixture, the supernatant was removed and 5 µL of sample analyzed. […] In addition, quality control samples with three different concentrations were prepared in respective blank matrix and analyzed together with the unknown samples for validation purposes. Analyte quantitation was performed by LC/MS/MS using optimized conditions for each compound. […]
B), 3.92 – 4.0 min (85 – 35 % B) and 4.0 – 4.75 min (35 % B), with a flow rate of 1.0 mL/min, and a run time of 4.75 min. […] The most intense MRM transition (420.2/269) was used for quantitation using electrospray ionization in the positive mode. […]

For `CNC(=O)c1ccc(-c2cnc3cnc(C(=O)N(C)c4ccc(Cl)cc4)cn23)cc1` [KDU691], the IC50 [1] was 180 ± 210 nM, the “compound partitioning in the liver, Cmax over plasma” value [2] was 1.7 × and the “compound partitioning in the liver, exposure over plasma” value [2] was 3.1 ×. The “F (oral bioavailability)” value ([2]; po, 25 mg/kg) was 60%.
